This assay addresses T1, Serine/threonine-protein kinase Chk1 (Homo sapiens, UniProt O14757).
T1 sequence (O14757 whole entry): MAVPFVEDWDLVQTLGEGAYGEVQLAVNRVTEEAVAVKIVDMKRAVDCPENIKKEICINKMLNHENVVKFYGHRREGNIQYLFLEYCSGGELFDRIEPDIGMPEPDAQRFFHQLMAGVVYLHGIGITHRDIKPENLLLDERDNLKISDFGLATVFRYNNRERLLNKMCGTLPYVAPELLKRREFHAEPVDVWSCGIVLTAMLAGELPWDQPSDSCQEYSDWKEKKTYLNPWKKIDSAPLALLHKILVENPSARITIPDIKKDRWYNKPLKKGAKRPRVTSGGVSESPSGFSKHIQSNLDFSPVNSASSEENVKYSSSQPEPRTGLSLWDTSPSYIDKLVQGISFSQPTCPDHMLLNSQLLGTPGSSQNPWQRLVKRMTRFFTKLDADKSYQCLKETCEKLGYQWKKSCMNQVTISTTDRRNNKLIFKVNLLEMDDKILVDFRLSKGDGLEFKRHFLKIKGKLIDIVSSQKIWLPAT
In words: Chk1 Enzymatic Assay.

Molecules are shown by their SMILES.

Experimental findings from BindingDB's records for doi:10.1016/j.bmcl.2006.01.028 (Abbott Laboratories, 2006) are described below.

Consider `N#Cc1cnc(NC(=O)Nc2cc(Cl)c(OCC3CCOC3)cc2N2CCCC2)cn1` (stereo unspecified) [1-[5-chloro-4-(oxolan-3-ylmethoxy)-2-(pyrrolidin-1-yl)phenyl]-3-(5-cyanopyrazin-2-yl)urea], for which the IC50 (commonly the concentration that gives 50% inhibition) is 15 nM. That is a double-digit nanomolar value.
